Test results reported in patent publication US7968575B2, “Nitric oxide donors and uses thereof” (priority 2004, dated 2011).
Entries after “also recorded” stand apart in the source; their conditions may differ.

Experiments:
[1] = tested on: c-GMP; test: Cyclic-GMP measurement in aortic rat tissue (radioimmunoassay); assay type: cell-based; conditions: isolated rat aorta, FIGS. 25, 27 and 33; in words
Protocol: GTN (10^−6 M) was added to the chamber and, 1 minute after exposure to the drug, rings (usually 3-5) were taken, wrapped with aluminum foil and immediately frozen in liquid nitrogen for storage. Control sample group was treated with the vehicle solution only. At the time of analysis, rings were thawed, blotted over a dry gauzed and weighted. A known weight of tissue was homogenized in 2 ml ice-cold modified Hank's balanced salt solution containing (in gram/liter) NaCl 8; KCl 0.4; glucose 1; KH2PO4 0.06; Na2HPO4 0.047; Phenol red 0.017 and further containing 25 mM EDTA (disodium salt). The homogenate was centrifuged at 4000 g (force units) for 10 minutes at 2-4° C. and the supernatant was thereafter transferred into fresh pre-cooled test tube containing 1 ml of acetonitrile. The tubes were vortex mixed for a few seconds and subsequently centrifuged at 4000 g for 5 minutes at 2-4° C., to remove the precipitated protein. Each supernatant was transferred into a clean test tube and evaporated to dryness under a stream of nitrogen at 55° C. The dry residue was reconstituted with 10 volumes of Tris-EDTA buffer pH 7.5 (0.05 M Tris containing 4 mM EDTA). Aliquots of 100 μl of the reconstituted solution in duplicate were used for c-GMP measurements using Amersham RIA kit, as is described in Haj-Yehia & Benet [Pharmacology, 1995, 273, 1, pp. 94-100]. Standard curves were plotted with six concentrations (0, 0.5, 1, 2, 4 and 8 pmoles of c-GMP per tube).
The NO-tolerance effect of GTN and NO-donor compounds according to the present invention was measured by following the production of c-GMP in slices of thoracic aorta of rats. Thus, the production of c-GMP was measured as described in the methods section above for the reference NO-donor compound GTN, and for the NO-donors of the present invention Pet-2, Pet-3, Pet-7, Pet-8, Pet-10, Pet-12, Pet-24, Pet-59, Pet-147, Pet-149, Pet-152, Pet-154 and Pet-155.

[2] = tested on: isolated rat aorta; test: In vitro vasorelaxation of epinephrine-contracted rat aortic rings (cumulative concentration-response curves); assay type: cell-based; conditions: isolated rat aorta pre-treated in vitro with 1 μM epinephrine; in words
From the text: Male Sprague Dawley rats were anaesthetized using intraperitoneal injection of ketamine and xylazine (50 and 10 milligram per kilogram, respectively) and the thoracic aorta, the large upper portion of the descending aorta, starting at the caudal border of the chest bone, was removed thereafter, while carefully removing the paraadventetial tissue surrounding the vessel. Aortae were cut into rings of 4-5 millimeters and mounted onto the tissue path. The path buffer (Krebs-bicrbonate) was constantly gassed with carbogen and maintained at 37° C. The rings were preloaded under 2 g tension and equilibrated for 90 minutes, while refreshing the buffer every 15 minutes. After stabilization, the rings were contracted with epinephrine (1 μM). Cumulative Concentration-Response Curves (CCRC) were measured for the vasorelaxing effect induced by adding various concentrations, ranging from 10^−10 M to 10^−5 M of Pet-2, Pet-3, Pet-7, Pet-8, Pet-12, Pet-24, Pet-43, Pet-59, Pet-147, Pet-152 and Pet-154, and glyceryltrinitrate (GTN), according to the procedure described in Feelich et al., Molecular Pharmacology, 56:243-253 (1999). The vehicle, which was used for this experiment was water:ethanol:propyleneglycol at proportional ratio of 1:1:1.
The vasorelaxing effect of the thiazole-derived NO-donors according to the present invention was measured on slices of thoracic aorta of rats contracted with epinephrine, as described hereinabove.

[3] = tested on: c-GMP; test: Induction of in vivo nitrate tolerance (cGMP in aorta isolated after 16 hour infusion); design: species or system rat; conditions: in words; for tolerance induction in vivo: cGMP accumulation in isolated aorta of rats pre-treated in vivo with the compound
Protocol: For c-GMP levels and tolerance development, the rat's thoracic aorta was isolated after exposure to the tested compound in vivo, and measured as described above in the in vitro assays.
Male Sprague Dawley rats (220 to 250 grams) were housed under constant temperature and humidity conditions. Light was maintained at a 12/12 light dark cycle. Except for 12 hours before the experiment, when food fasting was initiated, all rats had free access to standard rat pellet diet and tap water. The animals were anesthetized by intraperitoneal injection of ketamine and xylazine combination (50 and 10 milligram per kilogram, respectively). […] The catheters were filled with normal saline solution containing 1000 IU/ml of heparin and plugged with a metal pin. Catheters were externalized to the back of the neck region and secured by a polyester felt disk.
After implantation, the rats were individually housed until they regained their preoperative weight and appeared healthy (3 to 4 days post-operation). At this time point (day 0), an osmotic mini-pump (Alza Corp., Palo Alto, Calif.) delivering constant volume (10 μl/hour) of vehicle or drug was connected to one of the intravenous catheters.
For inducing tolerance to the tested NO-donor according to the present invention, the animals received 200 μg/hour of the tested compound for 16 hours (short-term-induced tolerance). A similar number of animals were processed by the same surgical procedure and received the vehicle alone (10 μl/hour of a solution consisting of 30% ethanol and 30% propylene glycol in sterile distilled water for injection).
At the end of the infusion periods used for the development of tolerance (16 hour), the rats were anesthetized as described above, the two catheters were externalized and the delivering catheters were disconnected from the mini-pump. The abdomen was opened by midline incision and the thoracic aorta were isolated, washed and cleaned from the surrounding tissues. Strips of the treated aortas were pooled in chambers containing Krebs-Hanseliet buffer (10 ml), and exposed to 1 μM of the tested NO-donor (final concentration) for 120 seconds. The tissues were quickly collected and frozen in liquid nitrogen for cGMP measurement, described hereinabove.

[4] = tested on: isolated rat aorta; test: In vitro induction of tolerance: vasorelaxation of aortic rings pre-exposed to the NO-releasing compound; assay type: cell-based; conditions: vasorelaxation in rings pre-treated with 0.44 mM of the compound versus control rings; in words
Protocol: Aortic rings were prepared as described hereinabove, and were exposed to 0.44 mM GTN (vehicle was water:ethanol:propyleneglycol at proportional ratio of 1:1:1) for 1 hour before CCRC construction, to thereby induce tolerance to nitroglycerine. At the end of the tolerance induction period, rings were thrice washed with the path buffer (Krebs-bicrbonate) every 15 minutes for the following hour and then CCRC for vasorelaxation on GTN-induced tolerance rings were constructed for GTN (pretreated versus untreated rings, FIG. 15), in order to verify the ability to induce and measure GTN tolerance induction in vitro
Attempted induction of tolerance to the NO-donating compounds of the present invention was performed under the same conditions as for GTN. Thus, in an exemplary experiment, rings were exposed to 0.44 mM solution of Pet-3 in the attempt to induce tolerance for Pet-3. CCRC were then measured for the vasorelaxing effect of Pet-3 on a group of rings which were pre-exposed to Pet-3 as to induce tolerance to Pet-3, and for an untreated control group. The above protocol was repeated with Pet-2, Pet-7, Pet-8, Pet-12, Pet-24, Pet-43, Pet-149 and Pet-152.

[5] = tested on: isolated rat aorta; test: Cross-tolerance studies on aortic rings (GTN / Pet-12 pre-treatment); assay type: cell-based; conditions: in words
Protocol: Cross-tolerance studies were conducted using the same technique described above for measuring vasorelaxation of aortic rings from rats. Two groups of aortic rings samples were pre-treated with GTN, then one group was measured for vasorelaxation by GTN and the second group for vasorelaxation by Pet-12, an exemplary NO-donor according to the present invention. For the opposite cross-tolerance studies, two groups of aortic rings samples were pre-treated with Pet-12, then one group was measured for vasorelaxation by GTN and the second group for vasorelaxation by Pet-12.

Cc1nc(NC(=O)[C@@H](C)c2ccc(CC(C)C)cc2)sc1CCO[N+](=O)[O-] (stereo in doubt) [Pet-152, 2-(4-Isobutyl-phenyl)-N-[4-methyl-5-(2-nitrooxy-ethyl)-thiazol-2-yl]-propionamide]
levels of cGMP as compared with GTN [1]: increased levels of cGMP
vasorelaxation effect as compared with glyceryltrinitrate [2]: superior

CCc1nc(C)c(CCO[N+](=O)[O-])s1 [Pet-2, 2-Ethyl-4-methyl-5-(2-nitrooxy-ethyl)-thiazole]
level of cGMP following a repeated treatment in vivo ([3]; aorta of rats infused 200 μg/hour for 16 hours, then exposed to 1 μM compound for 120 seconds): remained substantially unchanged
tolerance induction in vivo [3]: absence of tolerance induction; also recorded: absence of tolerance effect
vasorelaxation effect as compared with glyceryltrinitrate [2]: superior

Cc1nc(C)c(CCO[N+](=O)[O-])s1 [Pet-3, 2,4-Dimethyl-5-(2-nitrooxy-ethyl)-thiazole]
levels of cGMP as compared with GTN [1]: increased levels of cGMP
tolerance induction in vitro [4]: absence of tolerance induction
vasorelaxation effect as compared with glyceryltrinitrate [2]: superior

Cc1nc(N(C)C)sc1CCO[N+](=O)[O-] [Pet-7, Dimethyl-[4-methyl-5-(2-nitrooxy-ethyl)-thiazol-2-yl]-amine]
levels of cGMP as compared with GTN [1]: increased levels of cGMP
tolerance induction in vitro [4]: absence of tolerance induction

Cc1nc(-c2ccccc2)sc1CCO[N+](=O)[O-] [Pet-8, 4-Methyl-5-(2-nitrooxy-ethyl)-2-phenyl-thiazole]
levels of cGMP as compared with GTN [1]: increased levels of cGMP
vasorelaxation effect as compared with glyceryltrinitrate [2]: superior

Cc1nc(N)sc1CCO[N+](=O)[O-] [Pet-10, 4-methyl-5-(2-nitrooxy-ethyl)-thiazole-2-ylamine]
levels of cGMP as compared with GTN [1]: increased levels of cGMP

Cc1nc(-c2cccnc2)sc1CCO[N+](=O)[O-] [Pet-12, 3-[4-Methyl-5-(2-nitrooxy-ethyl)-thiazole-2-yl]-pyridine]
tolerance induction in vivo [3]: absence of tolerance induction; also recorded: absence of tolerance effect; also recorded: lack of tolerance induction
tolerance induction in vitro [4]: absence of tolerance induction
vasorelaxation in GTN-tolerant rings (cross-tolerance) ([5]; aortic rings pre-treated with epinephrine and then with GTN): absence of tolerance induction effect; also recorded: has no effect on the vasorelaxation capacity
tolerance after pre-treatment with Pet-12 (to itself and to GTN) ([5]; aortic rings pre-treated with epinephrine and then with Pet-12): absence of tolerance induction effect; also recorded: does not evoke tolerance to itself not to GTN

CNc1cncc(-c2nc(C)c(CCO[N+](=O)[O-])s2)n1 [Pet-24, Methyl-{6-[4-methyl-5-(2-nitrooxy-ethyl)-thiazol-2-yl]-pyrazin-2-yl}-amine]
levels of cGMP as compared with GTN [1]: increased levels of cGMP
tolerance induction in vitro [4]: absence of tolerance induction

Cc1nc(Nc2nc(C)c(CCO[N+](=O)[O-])s2)sc1CCO[N+](=O)[O-] [Pet-43, Bis-[4-methyl-5-(2-nitrooxy-ethyl)-thiazol-2-yl]-amine]
tolerance induction in vitro [4]: absence of tolerance induction
vasorelaxation effect as compared with glyceryltrinitrate [2]: superior

Cc1nc(-c2ccc(C(F)(F)F)cc2)sc1CCO[N+](=O)[O-] [Pet-59, 4-Methyl-5-(2-nitrooxy-ethyl)-2-(4-trifluoromethyl-phenyl)-thiazole]
levels of cGMP as compared with GTN [1]: increased levels of cGMP
vasorelaxation effect as compared with glyceryltrinitrate [2]: superior

CCNc1nc(C)c(CCO[N+](=O)[O-])s1 [Pet-147, Ethyl-[4-methyl-5-(2-nitrooxy-ethyl)-thiazol-2-yl]-amine]
levels of cGMP as compared with GTN [1]: increased levels of cGMP

Cc1nc(Nc2cccc3ccccc23)sc1CCO[N+](=O)[O-] [Pet-149, [4-Methyl-5-(2-nitrooxy-ethyl)-thiazol-2-yl]-naphthalen-1-yl-amine]
levels of cGMP as compared with GTN [1]: increased levels of cGMP
tolerance induction in vitro [4]: absence of tolerance induction
vasorelaxation effect as compared with glyceryltrinitrate [2]: superior

Cc1nc(NC(=O)c2cccnc2)sc1CCO[N+](=O)[O-] [Pet-154, N-[4-methyl-5-(2-nitrooxy-ethyl)-thiazol-2-yl]-nicotinamide]
levels of cGMP as compared with GTN [1]: increased levels of cGMP

C=CCNc1nc(C)c(CCO[N+](=O)[O-])s1 [Pet-155, allyl-[4-methyl-5-(2-nitrooxy-ethyl)-thiazol-2-yl]-amine]
levels of cGMP as compared with GTN [1]: increased levels of cGMP
vasorelaxation effect as compared with glyceryltrinitrate [2]: superior
